# Patent US10519114B2, “Peptidomimetics and methods of using the same” (The Regents of the University of Michigan, priority 2016, dated 2019)
# Legend:
# [1] = biological target: T1, rat δ (C6-DOR) opioid receptor (Rattus norvegicus, UniProt P33533); assay: Stimulation of [35S]GTPγS binding, DOR; type: biochemical; conditions: for Emax / % stimulation DOR: [35S]GTPγS maximal stimulation compared with 10 μM standard DPDPE; for EC50 / EC50 (nm) DOR: [35S]GTPγS binding, C6-DOR membranes, mean ± standard error
# T1 construct: expressed in transfected cells
# How it was run: (§1)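 Peptide-stimulated [35S]GTPγS (0.1 nM) binding, with 30 μM GDP, 5 mM MgCl2 and 100 mM NaCl at pH 7.4, was measured over 1 h at room temperature. Membranes came from rat MOR/DOR C6 or human KOR CHO cells. Filter-retained counts were expressed against 10 μM DAMGO, DPDPE or U69,593 respectively; maxima were fitted nonlinearly.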
# [2] = biological target: T2, rat μ (C6-MOR) opioid receptor (Rattus norvegicus, UniProt P33535); assay: Stimulation of [35S]GTPγS binding, MOR; type: biochemical; conditions: for Emax: [35S]GTPγS maximal stimulation compared with 10 μM standard DAMGO; for EC50: [35S]GTPγS binding, C6-MOR membranes, mean ± standard error
# T2 construct: expressed in transfected cells
# How it was run: as §1
# [3] = biological target: T3, human κ (CHO-KOR) opioid receptor (Homo sapiens, UniProt P41145); assay: Radioligand binding assay, [3H]diprenorphine displacement, KOR; conditions: displacement of 0.2 nM [3H]diprenorphine, CHO-KOR membranes; mean ± standard error
# T3 construct: expressed in transfected cells
# How it was run: (§2)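 Competitive displacement of 0.2 nM [3H]diprenorphine is measured on 20 μg membrane protein from C6-MOR, C6-DOR or CHO-KOR cells in 50 mM Tris-HCl, pH 7.4. Binding equilibrates for 1 h at room temperature; naloxone (10 μM) defines nonspecific binding.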
# [4] = biological target: T1, rat δ (C6-DOR) opioid receptor; assay: Radioligand binding assay, [3H]diprenorphine displacement, DOR; conditions: displacement of 0.2 nM [3H]diprenorphine, C6-DOR membranes; mean ± standard error
# How it was run: as §2
# [5] = biological target: T3, human κ (CHO-KOR) opioid receptor; assay: Stimulation of [35S]GTPγS binding, KOR; type: biochemical; conditions: for Emax / % stimulation KOR: [35S]GTPγS maximal stimulation compared with 10 μM standard U-69,593; for EC50 / EC50 (nm) KOR: [35S]GTPγS binding, CHO-KOR membranes, mean ± standard error
# Description: In Vitro Pharmacology-Cell Lines and Membrane Preparations. All tissue culture reagents were purchased from Gibco Life Sciences (Grand Island, N.Y., U.S.). C6-rat glioma cells stably transfected with a rat μ (C6-MOR) or rat δ (C6-DOR) opioid receptor20 and Chinese hamster ovary (CHO) cells stably expressing a human K (CHO-KOR) opioid receptor21 were used for all in vitro assays. Cells were grown to confluence at 37° C. in 5% CO2 in Dulbecco's modified Eagle medium containing 10% fetal bovine serum and 5% penicillin/streptomycin. Membranes were prepared by washing confluent cells three times with ice cold phosphate buffered saline (0.9% NaCl, 0.61 mM Na2HPO4, 0.38 mM KH2PO4, pH 7.4). Cells were detached from the plates by incubation in warm harvesting buffer (20 mM HEPES, 150 mM NaCl, 0.68 mM EDTA, pH 7.4) and pelleted by centrifugation at 200 g for 3 min. The cell pellet was suspended in ice-cold 50 mM Tris-HCl buffer, pH 7.4, and homogenized with a Tissue Tearor (Biospec Products, Inc., Bartlesville, Okla., U.S.) for 20 s at setting 4. The homogenate was centrifuged at 20 000 g for 20 min at 4° C., and the pellet was rehomogenized in 50 mM Tris-HCl with a Tissue Tearor for 10 s at setting 2, followed by recentrifugation. The final pellet was resuspended in 50 mM Tris-HCl and frozen in aliquots at […]. Protein concentration was determined via Bradford assay using bovine serum albumin as the standard.
# Stimulation of [^35S]GTPyS Binding. Agonist stimulation of [35S]guanosine 5′-O-[γ-thio]triphosphate ([^35S]GTPγS, 1250 Ci, 46.2 TBq/mmol) binding was measured as described previously Briefly, membranes (10-20 μg of protein/tube) were incubated 1 h at room temperature in GTPyS buffer (50 mM Tris-HCl, 100 mM NaCl, 5 mM MgCl2, pH 7.4) containing 0.1 nM [^35S]GTPγS, 30 μM guanosine diphosphate (GDP), and varying concentrations of test peptides. Peptide stimulation of [^35S]GTPyS was compared with 10 μM standard compounds [D-Ala^2,N-MePhe^4,Gly-ol]encephalin (DAMGO) at MOR, D-Pen^2,5-enkephalin (DPDPE) at DOR, or […] at KOR. The reaction was terminated by rapidly filtering through GF/C filters and washing 10 times with GTPyS buffer, and retained radioactivity was measured as described above. The results presented are the mean±standard error from at least three separate assays performed in duplicate; maximal stimulation was determined using nonlinear regression analysis with GraphPad Prism (GraphPad Software Inc., La Jolla, Calif.).
# [6] = biological target: T2, rat μ (C6-MOR) opioid receptor; assay: Radioligand binding assay, [3H]diprenorphine displacement, MOR; conditions: displacement of 0.2 nM [3H]diprenorphine, C6-MOR membranes; mean ± standard error
# How it was run: as §2
# T1 sequence (P33533 whole entry): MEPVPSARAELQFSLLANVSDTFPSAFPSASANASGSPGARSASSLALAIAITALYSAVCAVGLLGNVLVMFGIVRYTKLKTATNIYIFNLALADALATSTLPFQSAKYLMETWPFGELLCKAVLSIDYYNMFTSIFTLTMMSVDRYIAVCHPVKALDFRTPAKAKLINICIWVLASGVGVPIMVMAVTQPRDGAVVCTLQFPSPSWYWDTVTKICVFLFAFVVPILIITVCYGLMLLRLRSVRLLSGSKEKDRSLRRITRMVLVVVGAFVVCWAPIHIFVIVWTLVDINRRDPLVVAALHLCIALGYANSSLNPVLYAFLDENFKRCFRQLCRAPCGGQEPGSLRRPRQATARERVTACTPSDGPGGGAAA
# T3 sequence (P41145 whole entry): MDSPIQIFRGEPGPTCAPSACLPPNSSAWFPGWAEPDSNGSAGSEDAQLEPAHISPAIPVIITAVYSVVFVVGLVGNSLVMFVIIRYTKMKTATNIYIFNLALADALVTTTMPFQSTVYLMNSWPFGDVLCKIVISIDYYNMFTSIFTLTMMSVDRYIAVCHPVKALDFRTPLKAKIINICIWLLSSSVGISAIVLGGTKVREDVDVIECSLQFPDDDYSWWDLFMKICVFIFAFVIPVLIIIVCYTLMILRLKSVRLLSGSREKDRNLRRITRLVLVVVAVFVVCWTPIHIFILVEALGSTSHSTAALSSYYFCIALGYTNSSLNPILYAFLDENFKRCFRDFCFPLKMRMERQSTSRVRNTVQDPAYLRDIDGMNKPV
# T2 sequence (P33535 whole entry): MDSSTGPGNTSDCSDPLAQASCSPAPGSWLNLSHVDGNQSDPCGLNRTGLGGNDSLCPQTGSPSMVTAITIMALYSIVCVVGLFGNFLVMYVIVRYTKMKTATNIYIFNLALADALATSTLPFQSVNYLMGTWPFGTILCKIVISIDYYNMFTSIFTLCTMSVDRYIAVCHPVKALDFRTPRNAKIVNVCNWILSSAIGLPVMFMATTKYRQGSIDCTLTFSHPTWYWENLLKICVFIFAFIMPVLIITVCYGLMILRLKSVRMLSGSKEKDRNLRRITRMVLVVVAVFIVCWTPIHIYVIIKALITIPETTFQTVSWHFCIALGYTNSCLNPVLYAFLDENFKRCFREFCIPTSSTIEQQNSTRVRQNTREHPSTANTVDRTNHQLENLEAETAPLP
Structure (SMILES),Emax [1],Emax [2],Ki [3],Ki [4],Emax [5],Ki [6],EC50 [1],EC50 [2],EC50 [5],EC50 (nm) DOR [1],% stimulation DOR [1],EC50 (nm) KOR [5],% stimulation KOR [5]
Cc1cc(O)cc(C)c1C[C@H](N)C(=O)N[C@H]1CCNc2ccc(Cc3ccc(F)cc3)cc21 [Compound 1010],12%,58%,90 nM,190 nM,0%,10 nM,–,–,–,–,–,–,–
CCCCCCc1ccc2c(c1)[C@H](NC(=O)[C@@H](N)Cc1c(C)cc(O)cc1C)CCN2 [Compound 1011],2.5 ± 2.5%,35.9 ± 5.28%,15.1 ± 5.7 nM,5.89 ± 0.76 nM,34.6 ± 1.11%,0.13 ± 0.02 nM,1.7 nM,2.41 ± 0.81 nM,773 ± 26.5 nM,–,–,–,–
CCCCCCc1ccc2c(c1)[C@@H](NC(=O)[C@@H](N)Cc1c(C)cc(O)cc1C)CCN2 [Compound 1012],22%,18%,3900 nM,1240 ± 438 nM,0%,297 ± 72 nM,> 10000 nM,> 1000 nM,–,–,–,–,–
CCCCCc1ccc2c(c1)[C@H](NC(=O)[C@@H](N)Cc1c(C)cc(O)cc1C)CCN2 [Compound 1013],0%,20.2 ± 7.11%,22.5 ± 10.3 nM,8.81 ± 2.89 nM,23.7 ± 0.83%,0.22 ± 0.09 nM,–,12 ± 5.77 nM,543 ± 148 nM,–,–,–,–
Cc1cc(O)cc(C)c1C[C@H](N)C(=O)N[C@@H]1C[C@@H](C)Nc2ccc(Cc3ccccc3)cc21 [Compound 1014],44.9 ± 8.25%,87.8 ± 2%,238 ± 21.7 nM,87.2 ± 56.2 nM,28.9 ± 12.3%,1.24 ± 0.5 nM,627 ± 88.9 nM,8.93 ± 4 nM,4070 nM,–,–,–,–
Cc1cc(O)cc(C)c1C[C@H](N)C(=O)N(C1CC1)[C@@H]1CCNc2ccc(Cc3ccccc3)cc21 [Compound 1015],19.5 ± 2.83%,15.8 ± 3.75%,58.9 ± 28.5 nM,23.4 ± 10.9 nM,-1.84 ± 1.83%,25.6 ± 9.83 nM,149 ± 42 nM,131 ± 21.2 nM,–,–,–,–,–
Cc1cc(O)cc(C)c1C[C@H](N)C(=O)N(C1CC1)C1CCNc2ccc(Cc3ccccc3)cc21 (some centres unmarked) [Compound 1016],0.82 ± 3.63%,40.1 ± 10.7%,28.6 ± 7.24 nM,52.5 ± 17.8 nM,-0.01 ± 0.01%,5.33 ± 2.43 nM,–,28.4 ± 4.4 nM,–,–,–,–,–
Cc1cc(O)cc(C)c1C[C@H](N)C(=O)NC1CCNc2ccc(Oc3ccccc3)cc21 (some centres unmarked) [Compound 1017],9.8 ± 5.49%,68 ± 2.33%,65.5 ± 9.66 nM,13.9 ± 6.7 nM,23.6%,0.42 ± 0.04 nM,108 ± 53.3 nM,14.9 ± 5.37 nM,957 nM,–,–,–,–
CC(=O)N1CC[C@@H](NC(=O)[C@@H](N)Cc2c(C)cc(O)cc2C)c2cc(Oc3ccccc3)ccc21 [Compound 1019],15.8%,76.6 ± 2.66%,32.98 ± 0.1 nM,4.21 ± 1.26 nM,37.3%,0.1 ± 0.02 nM,222 nM,6.49 ± 3.21 nM,1080 nM,–,–,–,–
CC(=O)N1CC[C@@H](NC(=O)[C@@H](N)Cc2c(C)cc(O)cc2C)c2cc(Oc3ccc(Cl)cc3)ccc21 [Compound 1026],0%,61.2 ± 6.93%,45.5 ± 6.67 nM,3.1 ± 0.69 nM,47.3%,0.1 ± 0.03 nM,–,7.01 ± 1.49 nM,1820 nM,–,–,–,–
CC(=O)N1CC[C@@H](NC(=O)[C@@H](N)Cc2c(C)cc(O)cc2C)c2cc(Oc3cccc(Cl)c3)ccc21 [Compound 1027],7.42 ± 5.57%,72.2 ± 2.41%,21 nM,5.03 ± 0.29 nM,55.1%,0.05 ± 0.01 nM,431 ± 216 nM,8.07 ± 4.81 nM,791 nM,–,–,–,–
Cc1cc(O)cc(C)c1C[C@H](N)C(=O)N[C@@H]1CCNc2ccc(Cc3c(Cl)cccc3Cl)cc21 [Compound 1032],–,33.6%,4.85 ± 0.66 nM,4.61 ± 0.06 nM,0%,0.08 ± 0.01 nM,–,2040 nM,–,dns,dns,–,–
Cc1cc(C(N)=O)cc(C)c1C[C@H](N)C(=O)N[C@@H]1CCNc2ccc(Cc3ccccc3)cc21 [Compound 1048],24.5 ± 3.25%,97.9 ± 4.71%,170 ± 49.1 nM,32.3 ± 7.57 nM,–,0.6 ± 0.12 nM,1590 ± 738 nM,9.2 ± 4.58 nM,–,–,–,dns,dns
Cc1ccc2c(c1)CN(Cc1ccc3c(c1)[C@H](NC(=O)[C@@H](N)Cc1c(C)cc(O)cc1C)CCN3)CC2 [Compound 1049],–,111 ± 4.65%,11.9 ± 6.13 nM,23.3 ± 2.51 nM,–,0.17 ± 0.06 nM,–,0.35 ± 0.11 nM,–,dns,dns,dns,dns
Cc1cc(O)cc(C)c1C[C@H](N)C(=O)N[C@@H]1CCNc2ccc(Cc3ccc4c(c3)OCCO4)cc21 [Compound 1050],–,87.5 ± 12%,116 ± 65.1 nM,5.48 ± 0.81 nM,–,0.35 ± 0.11 nM,–,5.54 ± 0.12 nM,–,dns,dns,dns,dns
